From patent US20170115269A1, “ACYLCARNITINE COMPOSITION” (SEKISUI MEDICAL CO., LTD., priority 2014, published 2017)

Test: Storage stability of acylcarnitine-stable isotopes in methanol solution at room temperature (Reference Example 1, LC-MS/MS residual rate)
Assay type: physicochemical
Method: Acylcarnitine solutions were acquired by dissolving acylcarnitine-stable isotopes into methanol to concentrations listed in Table 3. The acylcarnitine-stable isotopes were measured under the following conditions. The acylcarnitine solutions were measured immediately before storage (prepared at the time of use) and after storage for predetermined periods, and the residual rate (%) was calculated from the acquired peak area ratio using Equation 2 described below.
System: LC-20A series (manufactured by Shimadzu Corporation) and 4000 QTRAP (manufactured by AB Sciex) […]
Mobile phase: mobile phase A, 0.5% (v/v) formic acid aqueous solution mobile phase B, 500 mmol/L ammonium formate aqueous solution: 500 mmol/L ammonium hydroxide (9:1)/methanol=1/9
Analysis time: 70 minutes
LC column: Scherzo SS-C18, 3 μm, 3.0×150 mm (manufactured by Imtact Corporation) Column temperature: 50° C.
Sample injection amount: 5 μL
Ionization mode: ESI (electrospray ionization)
Ion source: Turbo IonSpray
Q1/Q3 is described in Table 3.

[1] = storage period 2 M (two months)

| Res. Rt (Residual Rate) (storage period 1 M (one month)) [%] | Res. Rt (Residual Rate) [1] [%] | SMILES |
| --- | --- | --- |
| 101.7 | 63.8 | [2H]C([2H])([2H])[N+](C)(C)CC(CC(=O)[O-])OC(=O)CCC (stereo not shown) [^2H3-Butyrylcarnitine] |
| 101.2 | 62.6 | [2H]C([2H])([2H])[N+](C)(C)CC(CC(=O)[O-])OC(=O)CCCCCCCCCCCCCCC (stereo not shown) [^2H3-Palmitoylcarnitine] |
| 99.9 | 97.9 | [2H]C([2H])([2H])[N+](C)(C)CC(CC(=O)[O-])OC(=O)CC(C)(C)O (stereo not shown) [^2H3-(3-Hydroxyisovaleryl)-carnitine] |
| 99.3 | 63.3 | [2H]C([2H])([2H])[N+](C)(C)CC(CC(=O)[O-])OC(=O)CCCC(=O)O (stereo not shown) [^2H3-Glutarylcarnitine] |
| 103.7 | 69.6 | [2H]C([2H])([2H])[N+](C)(C)CC(CC(=O)[O-])OC(=O)CCCCCCCCCCCCCCCCC (stereo not shown) [^2H3-Octadecanoylcarnitine] |

Further lines, the compound ahead of its results:

| SMILES | Res. Rt (Residual Rate) (storage period 1 M (one month)) [%] | Res. Rt (Residual Rate) [1] [%] |
| --- | --- | --- |
| [2H]C([2H])([2H])[N+](C)(C)CC(CC(=O)[O-])OC(=O)CCCCCCCCCCC (stereo not shown) [^2H3-Dodecanoylcarnitine] | 103.1 | 84.9 |
| [2H]C([2H])([2H])[N+](C)(C)CC(CC(=O)[O-])OC(=O)CC (stereo not shown) [^2H3-Propionylcarnitine] | 97.4 | 38.5 |
| [2H]C([2H])([2H])[N+](C)(C)CC(CC(=O)[O-])OC(=O)CCCCCCC (stereo not shown) [^2H3-Octanoylcarnitine] | 103.3 | 70.3 |
| [2H]C([2H])([2H])[N+](CC(CC(=O)[O-])OC(=O)CCCCCCCCCCCCC)(C([2H])([2H])[2H])C([2H])([2H])[2H] (stereo not shown) [^2H9-Myristoylcarnitine] | 103.9 | 67.8 |
| [2H]C([2H])([2H])[N+](C[C@H](O)CC(=O)[O-])(C([2H])([2H])[2H])C([2H])([2H])[2H] [^2H9-Carnitine] | 100.9 | 100.2 |
| [2H]C([2H])([2H])[N+](CC(CC(=O)[O-])OC(=O)CC(C)C)(C([2H])([2H])[2H])C([2H])([2H])[2H] (stereo not shown) [^2H9-Isovalerylcarnitine] | 100.3 | 99.4 |
